The subject of experiment [1] is cathepsins L and B in MDA-MB-231 cells. In words: Cathepsin labeling in MDA-MB-231 cells by SDS-PAGE and western blotting. The experiment is classed as cell-based, human. The protocol:
Low passage MDA-MB-231 cells were seeded on 12-well plates (200 000 cells per well per 1 mL of medium) and cultured in Dulbecco’s Modification of Eagle’s Medium (DMEM) supplemented with 10% fetal bovine serum, 2 mM of L-glutamine, 100 units per mL penicillin and 100 μg mL^–1 streptomycin. […] To control for non-specific binding, the cells were preincubated with E64d (25 μM) for 2 hours prior to probe addition. At various time points, the medium was aspirated and the cells were gently washed twice with 1 mL of Dulbecco’s Phosphate-Buffered Saline (DPBS) and then trypsinized, harvested and centrifuged for 10 min (500 × g). The supernatants were removed by aspiration and the pellets washed with 1 mL of DPBS and centrifuged (5 min, 500 × g). The supernatants were again removed and the pellets solubilized in 100 μL 1× SDS/DTT and then boiled for 5 min. Each sample was then cooled to room temperature and sonicated (Branson Sonifier 250, duty cycle: 50, output control: 5, cycles: 5) and then 30 μL was loaded on 4–12% Bis-Tris Plus gels and run for 30 min at 200 V with a SDS-PAGE Standards/Broad Range ladder. Proteins were transferred to a 0.2 μm nitrocellulose membrane for 1 hour at 10 V and then Ponceau staining was used to verify equal loading. Membranes were blocked with 2.5% BSA in Tris-buffered saline/0.1% v/v Tween 20 (TBS-T) for 1 hour at room temperature. Cathepsins L and B were detected by primary goat anti-hCathepsin L (R&D, AF952, 0.2 mg mL^–1, 1 : 2000) and goat anti-hCathepsin B (R&D, AF953, 0.2 mg mL^–1, 1 : 1000) antibodies, respectively, followed by incubation with a secondary antibody (IRDye® 800CW, LI-COR, donkey anti-goat, 1 : 10 000). The membranes were incubated with primary antibodies for 2 hours, and with (fluorescent) secondary antibodies for 30 min (both in TBS-T at room temperature). The fluorescence was read at 700 nm (Cyanine5; excitation 685 nm) and 800 nm (secondary antibody; excitation 785 nm) using an Odyssey fluorescence imaging system (LI-COR). The images were analyzed using Image Studio software.
(In general: A western blot detects proteins with antibodies after separation by electrophoresis.)

In experiment [2] the target is T1, cathepsin K (Homo sapiens, UniProt P43235).
T1 construct: made in house
T1 sequence (P43235 115-329): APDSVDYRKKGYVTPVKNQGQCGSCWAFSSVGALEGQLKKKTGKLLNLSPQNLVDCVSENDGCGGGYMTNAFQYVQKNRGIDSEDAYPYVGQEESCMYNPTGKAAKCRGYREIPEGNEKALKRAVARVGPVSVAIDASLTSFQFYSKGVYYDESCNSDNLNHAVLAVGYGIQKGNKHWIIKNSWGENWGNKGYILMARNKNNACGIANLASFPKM
The experiment is described as follows: kobs/I of activity-based probes, cathepsin K. The format is biochemical. Conditions: Fig. 6A; pseudo-first order, probe at least 5-fold excess over cathepsin, 100 μM ACC substrate; pH 5.5, 37 °C; triplicate, SD below 20%. The protocol: (§1) All kinetic experiments were performed using fMax (Molecular Devices) and CLARIOStar (BMG LABTECH) spectrofluorimeters operating in kinetic mode using 96-well plates. ACC-labeled substrates were screened using 355 nm and 460 nm wavelengths (excitation and emission, respectively). […] The buffer was prepared at room temperature and the enzyme kinetic studies were performed at 37 °C.
(§2) For the kinetic studies, five recombinant human cathepsins (B, L, V, K and S) were expressed and purified and active site titrated using an E64 inhibitor. The kobs/I parameter was measured under pseudo-first order kinetic conditions, as described.[40] The cathepsin of interest was mixed with various concentrations of probe (at least 5-fold excess over cathepsin) and 100 μM ACC-fluorescence substrate. The experiments were repeated at least three times, and the results are presented as an average. The SDs were below 20%.

Experiment [3] concerns the target T2, cathepsin V (Homo sapiens, UniProt O60911).
T2 construct: made in house
In words: kobs/I of activity-based probes, cathepsin V. The format is biochemical. As to conditions: Fig. 6A; pseudo-first order, probe at least 5-fold excess over cathepsin, 100 μM ACC substrate; pH 5.5, 37 °C; triplicate, SD below 20%. The protocol:
as §1, §2

Experiment [4] addresses T3, cathepsin B (Homo sapiens, UniProt P07858).
T3 construct: made in house
In words: kobs/I of activity-based probes, cathepsin B. The experiment is classed as biochemical. Conditions: Fig. 6A; pseudo-first order, probe at least 5-fold excess over cathepsin, 100 μM ACC substrate; pH 5.5, 37 °C; triplicate, SD below 20%. The protocol: as §1, §2

Experiment [5] has as its target T4, cathepsin L (Homo sapiens, UniProt P07711).
T4 construct: made in house
In words: kobs/I of activity-based probes, cathepsin L. The format is biochemical. As to conditions: Fig. 6A; pseudo-first order, probe at least 5-fold excess over cathepsin, 100 μM ACC substrate; pH 5.5, 37 °C; triplicate, SD below 20%. The protocol:
as §1, §2

Experiment [6] concerns the target T5, cathepsin S (Homo sapiens, UniProt P25774).
T5 construct: made in house
In words: kobs/I of activity-based probes, cathepsin S. The experiment is classed as biochemical. As to conditions: Fig. 6A; pseudo-first order, probe at least 5-fold excess over cathepsin, 100 μM ACC substrate; pH 5.5, 37 °C; triplicate, SD below 20%. The protocol:
as §1, §2

For experiment [7], the system named is cathepsins L, V, B, S and K. In words: Labeling of recombinant cathepsins by Cy5 probes, SDS-PAGE. The experiment is classed as biochemical, human. Conditions: cathepsins 10 nM or 100 nM, probe/enzyme ratio 0.2, 1, 5 and 25, 30 min, Cy5 scan. The protocol: In experiment A, the probe concentrations were 2 nM, 10 nM, 50 nM and 250 nM, while in experiment B the probe concentrations were 20 nM, 100 nM, 500 nM and 2.5 μM. The reaction volume for all the samples was 200 μL. After 30 min, 100 μL of 3× SDS/DTT was added to the reaction mixtures, the samples were boiled for 5 min, and then 20 μL of the sample was run on 4–12% Bis-Tris Plus 15-well gels for 30 min at 200 V with 2 μL of PageRuler™ Prestained Protein Ladder. The gels were then directly scanned at 700 nm (red channel for Cy5 detection; excitation 685 nm) using an Odyssey fluorescence imaging system (LI-COR) and the images were analyzed using Image Studio software.

For experiment [8], the system named is cathepsins L and B in HEK293T cells. The experiment is described as follows: Cathepsin labeling by Cy5 probes in HEK293T cells, immunoblotting. The format is cell-based, human. Conditions: 1 μM probe, 0–18 hours. The protocol: Figure S3 Cathepsins labeling by two Cy5-tagged probes in HEK293T cells. Panel A. Cells (100,000/well/mL) were incubated with MP-cL3 (1µM) probe for 0-18 hours. Next, cells were harvested and subjected for Western blotting. MP-cL3 probe is very selective toward cathepsin L even after 18 hours of incubation (only residual cathepsin B activity is detected).
MDA-MB-231, thus mostly heavy chain of cathepsin L is labeled. Panel B and Panel C. Cells (100,000/well/mL) were incubated with pan-specific MP-pc1 (1µ M) probe for 0-18 hours. Next, cells were harvested and subjected […]
(1 picture or pasted object on this page, not shown here)

For experiment [9], the system named is HEK293T cells overexpressing cathepsin L. As to conditions: probes 5 μM, 18 hours; streptavidin magnetic beads; immunoblotting.
Experimental: To evaluate MP-cL1 and MP-cL2 selectivity, 250 000 HEK293T cells overexpressing cathepsin L were plated and treated with probes and inhibitors as described above. Streptavidin-bound magnetic beads were prepared in separate tubes according to the manufacturer’s guidelines (Pierce™ Streptavidin Magnetic Beads, Thermo Scientific). Briefly, 50 μL beads were washed with sample lysis buffer and then the lysates were added. Tubes were incubated at room temperature on a rocking platform for 2 hours. The beads were then extensively washed with 50 mM Tris-buffered saline containing 0.1% Tween-20 and collected between each washing step. The beads were then re-suspended in 1× SDS loading buffer at a final volume of 100 μL, and the samples were placed at 95 °C and prepared for immunoblotting as described above to detect biotinylated proteins in the lysates, as well as in the unbound and eluted fractions. To confirm cathepsin L/B selectivity, we seeded HEK293T cells as described above. The probes were added at a 5 μM final concentration and incubated for 18 hours before the cells were harvested and lysed to isolate biotinylated proteins using streptavidin magnetic beads, as described above. The lysates plus the unbound and eluting fractions were then evaluated to detect cathepsin B (in-house mouse polyclonal Ab;[51] dilution 1 : 1000) and cathepsin L (Abcam ab62710).
For experiment [10], the system named is HEK293T cathepsin L-transfected cells. Conditions: probes 0–10 μM incubated with cells up to 24 hours; streptavidin–HRP blot. The protocol: To evaluate probe uptake, 250 000 HEK293T cells transfected with pcDNA3:ppCatL were seeded into 6-well plates and incubated with various concentrations of bMP-cL1 and bMP-cL2 (0–10 μM) for up to 24 hours. In control experiments the cells were preincubated with 25 μM E-64d, a pan-cathepsin inhibitor, for 2 hours prior to probe addition. After incubation samples were collected and immunoblotted. Biotinylated proteins were detected as described above.

T2 sequence (O60911 114-334): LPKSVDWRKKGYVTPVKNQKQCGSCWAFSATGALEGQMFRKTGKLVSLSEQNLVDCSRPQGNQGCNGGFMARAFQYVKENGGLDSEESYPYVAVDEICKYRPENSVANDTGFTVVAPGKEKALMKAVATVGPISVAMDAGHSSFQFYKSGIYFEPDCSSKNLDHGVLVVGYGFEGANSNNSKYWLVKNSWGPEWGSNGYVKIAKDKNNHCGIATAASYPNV
T4 sequence (P07711 114-333): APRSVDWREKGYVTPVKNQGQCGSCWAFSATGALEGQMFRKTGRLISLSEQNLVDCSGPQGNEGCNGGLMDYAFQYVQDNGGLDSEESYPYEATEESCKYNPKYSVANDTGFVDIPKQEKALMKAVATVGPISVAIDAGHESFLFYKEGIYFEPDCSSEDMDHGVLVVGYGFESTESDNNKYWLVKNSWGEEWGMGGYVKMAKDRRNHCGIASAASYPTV
T5 sequence (P25774 115-331): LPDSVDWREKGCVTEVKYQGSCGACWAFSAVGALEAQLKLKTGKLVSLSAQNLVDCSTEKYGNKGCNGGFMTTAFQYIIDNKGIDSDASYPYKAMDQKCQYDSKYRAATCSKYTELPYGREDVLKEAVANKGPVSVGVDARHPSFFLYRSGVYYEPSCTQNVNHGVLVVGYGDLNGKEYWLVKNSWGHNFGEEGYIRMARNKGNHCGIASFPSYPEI

Take `CCOC(=O)[C@H]1O[C@@H]1C(=O)N[C@@H](CC(C)C)C(=O)NCCC(C)C` [E64d, reference compound]: the “effect of pre-incubation on cathepsin labeling by probe” value in [1] (25 μM, 2 hours prior to probe addition, MDA-MB-231 cells) was “blocked all cysteine cathepsin activity”.

Turning to “BODIPYFL-6-ahx-Ala-Arg-Leu-Arg-AOMK [MP-pc2, BDPFL-6-ahx-Ala-Arg-Leu-Arg-AOMK, BODIPY-FL-labeled pan-cathepsin probe]”, in experiment [2], the “kobs/I Cath-K” value stood at 350 M⁻¹ s⁻¹. Further, the “kobs/I Cath-V” value in experiment [3] was 9,800 M^-1s^-1. Moreover, the “kobs/I Cath-B” value in experiment [4] was 23,200 M^-1s^-1. In addition, the “kobs/I Cath-L” value in [5] was 8,200 M^-1s^-1. Besides, the “kobs/I Cath-S” value in experiment [6] is recorded as 18,500 M^-1s^-1.

For “Cy3-6-ahx-Ala-Arg-Leu-Arg-AOMK [MP-pc3, Cy3-labeled pan-cathepsin probe]”, in experiment [2], the “kobs/I Cath-K” value is 1,350 M^-1s^-1. Further, in [3], the “kobs/I Cath-V” value is reported as 6,700 M^-1s^-1. Also, the “kobs/I Cath-B” value in experiment [4] was 75,400 M^-1s^-1. In addition, the “kobs/I Cath-L” value in [5] is 16,900 M^-1s^-1. Further, the “kobs/I Cath-S” value in experiment [6] is recorded as 69,000 M^-1s^-1.

For the compound “Cy5-Ala-Arg-Leu-Arg-AOMK [MP-pc1, Cy5-labeled broad spectrum (pan-specific) cathepsin probe]”, the “kobs/I Cath-K” value in [2] was 30,150 M^-1s^-1. Moreover, the “cathepsins labeled in MDA-MB-231 cells” value in [1] (1 μM probe, 0–18 hours, antibody overlay) is “bound mostly to cathepsin B”. Also, in [3], the “kobs/I Cath-V” value is 53,200 M^-1s^-1. The “kobs/I Cath-B” value in experiment [4] was 265,000 M^-1s^-1. Moreover, in experiment [5], the “kobs/I Cath-L” value was 47,500 M^-1s^-1. Also, the “labeling of recombinant cathepsins L, V, B, S and K” value in experiment [7] was “can label cathepsins L, V, B and S (10 nM) even at a 1 : 1 ratio”. The “cathepsins labeled in HEK293T cells” value in [8] was “labeled both cathepsins L (25 kDa and 30 kDa) and B (30 kDa)”. The “kobs/I Cath-S” value in experiment [6] was 202,500 M^-1s^-1.

For “biotin-6-ahx-His-DThr-Phe(F5)-Arg-AOMK [MP-cL1] [listing 1 of 2 here]”, the “kobs/I Cath-K” value in experiment [2] was below 100 M⁻¹ s⁻¹. Besides, the “kobs/I Cath-V” value in [3] worked out at 780 M⁻¹ s⁻¹. For the same compound, in experiment [4], the “kobs/I Cath-B” value is reported as 1,900 M^-1s^-1. In addition, in experiment [5], the “kobs/I Cath-L” value is 26,600 M^-1s^-1. In experiment [6], the “kobs/I Cath-S” value was below 100 M⁻¹ s⁻¹.

In the case of “biotin-6-ahx-His-DThr-Phe(F5)-Arg-AOMK [MP-cL1] [listing 2 of 2 here]”, in experiment [9], the “cross-reactivity with cathepsin B in pulldown eluting fractions” value is “only minor cross-reactivity”. Further, the “lowest probe concentration giving a signal in the cathepsin MW range” value in experiment [10] is reported as 100 nM.

As to “biotin-6-ahx-His-DThr-Phe(F5)-Lys-AOMK [MP-cL2] [listing 1 of 2 here]”, in [2], the “kobs/I Cath-K” value was below 100 M⁻¹ s⁻¹. Further, the “kobs/I Cath-V” value in experiment [3] was 360 M⁻¹ s⁻¹. Besides, the “kobs/I Cath-B” value in experiment [4] is 1,250 M^-1s^-1. In addition, the “kobs/I Cath-L” value in experiment [5] is reported as 10,500 M^-1s^-1. In addition, the “kobs/I Cath-S” value in [6] is below 100 M⁻¹ s⁻¹.

In the case of “biotin-6-ahx-His-DThr-Phe(F5)-Lys-AOMK [MP-cL2] [listing 2 of 2 here]”, the “cross-reactivity with cathepsin B in pulldown eluting fractions” value in [9] was “only minor cross-reactivity”. For the same compound, the “lowest probe concentration giving a signal in the cathepsin MW range” value in [10] was 100 nM.

Values taken from publication PMC5896380, “Selective imaging of cathepsin L in breast cancer by fluorescent activity-based probes” (Chemical Science, 2018).
